Twelve compounds from PubChem BioAssay (NCI) can be followed below.

Test systems include SF-268 CNS; UACC-62 melanoma; SN12C renal; HT29 colon; SNB-19 CNS; LOX IMVI melanoma; NCI/ADR-RES ovarian; HL-60(TB) leukemia; SR leukemia; T-47D breast.
What all share (experiment): NCI tumour cell line growth inhibition, 48 h

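Grown in 96-well plates, cells were treated for 48 hours with each compound at five concentrations. Insufficient inhibition: endpoint recorded as highest concentration tested. GI50 = concentration required for 50% inhibition of growth. TGI is the concentration that stops growth completely.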

Consider `O=C1/C(=C/c2ccc(F)cc2)CN(C(=O)CCN2CCC(=NO)CC2)C/C1=C\c1ccc(F)cc1`, for which the GI50 is 2020 nM in the experiment with SF-268 CNS; 840 nM in the experiment with UACC-62 melanoma; 1200 nM in the experiment on SN12C renal; 845 nM in the experiment with HT29 colon; 1530 nM with SNB-19 CNS; 409 nM in the experiment on LOX IMVI melanoma. The GI50 with NCI/ADR-RES ovarian is 1900 nM; with HL-60(TB) leukemia, 2260 nM; with SR leukemia it was 197 nM; in the experiment with T-47D breast, 2560 nM. Further, the TGI is 5460 nM with SF-268 CNS; 2410 nM in the experiment on UACC-62 melanoma; 3640 nM in the experiment with SN12C renal; 2610 nM in the experiment with HT29 colon; 4100 nM in the experiment on SNB-19 CNS; 922 nM in the experiment on LOX IMVI melanoma. Besides, the TGI was 23400 nM with NCI/ADR-RES ovarian, 7950 nM with HL-60(TB) leukemia, > 100000 nM in the experiment on SR leukemia and 9550 nM with T-47D breast.

Turning to `O=C(O)/C(Cc1cn[nH]n1)=N\O`, the TGI in the experiment with SF-268 CNS, with UACC-62 melanoma, with SN12C renal, in the experiment with HT29 colon, in the experiment on SNB-19 CNS and in the experiment with LOX IMVI melanoma was > 100000 nM throughout. The TGI with NCI/ADR-RES ovarian, in the experiment on HL-60(TB) leukemia, in the experiment with SR leukemia and with T-47D breast was > 100000 nM each time.

Regarding `COc1cc(C2C3=C(COC3=O)N(CCO)c3cc4c(cc32)OCCO4)cc(OC)c1OC` (configuration not stated), the GI50 in the experiment with SF-268 CNS was 374 nM; in the experiment on HT29 colon, 166 nM; in the experiment on SNB-19 CNS, 717 nM; in the experiment with LOX IMVI melanoma, 286 nM; with NCI/ADR-RES ovarian, 6750 nM; in the experiment with HL-60(TB) leukemia, 155 nM. The GI50 with SR leukemia was 166 nM; with T-47D breast it was 287 nM. For the same compound, the TGI is > 50000 nM in the experiment with SF-268 CNS; > 50000 nM with UACC-62 melanoma; > 50000 nM with SN12C renal; > 50000 nM in the experiment on SNB-19 CNS; > 50000 nM with LOX IMVI melanoma; > 40700 nM in the experiment on NCI/ADR-RES ovarian. The TGI in the experiment on HL-60(TB) leukemia is 1280 nM; with T-47D breast it was > 50000 nM.

As to `CC/C(Cc1ccccc1)=C(\c1ccc(OCCN2CCCC2)cc1)c1ccc(OC(=O)NCc2ccccc2)cc1`, the GI50 in the experiment on SF-268 CNS was 1810 nM; in the experiment on UACC-62 melanoma, 1810 nM; in the experiment on SN12C renal, 1810 nM; in the experiment on HT29 colon, 1820 nM; in the experiment on SNB-19 CNS it was 2150 nM; in the experiment with LOX IMVI melanoma it was 1710 nM. Moreover, the GI50 is 2660 nM in the experiment with NCI/ADR-RES ovarian, 1930 nM with HL-60(TB) leukemia, 1570 nM in the experiment with SR leukemia and 1410 nM with T-47D breast. Also, the TGI in the experiment with SF-268 CNS was 3770 nM; in the experiment on UACC-62 melanoma it was 3240 nM; in the experiment with SN12C renal, 3330 nM; in the experiment with HT29 colon, 3470 nM; in the experiment with SNB-19 CNS it was 4580 nM; in the experiment on LOX IMVI melanoma, 3100 nM. The TGI with NCI/ADR-RES ovarian is 10300 nM; with HL-60(TB) leukemia, 3980 nM; in the experiment on SR leukemia, 4070 nM; in the experiment with T-47D breast it was 4230 nM.

For the compound `COc1ccc(/C=C/c2c(C(=O)/C=C/c3ccc(C(F)(F)F)cc3)c(C)nc3ccccc23)cc1`, the GI50 is 1800 nM with SF-268 CNS; 1600 nM in the experiment with UACC-62 melanoma; 2020 nM in the experiment on SN12C renal; 1130 nM with HT29 colon; 1620 nM with SNB-19 CNS; 1370 nM in the experiment on LOX IMVI melanoma. The GI50 with NCI/ADR-RES ovarian is 2360 nM; with HL-60(TB) leukemia it was 1920 nM; with SR leukemia, 599 nM; in the experiment on T-47D breast, 1310 nM. In addition, the TGI in the experiment on SF-268 CNS was 3670 nM; in the experiment on UACC-62 melanoma, 3420 nM; with SN12C renal, 5660 nM; in the experiment on HT29 colon it was 6600 nM; in the experiment with SNB-19 CNS, 3050 nM; in the experiment on LOX IMVI melanoma it was 2740 nM. The TGI with NCI/ADR-RES ovarian is 7460 nM; with HL-60(TB) leukemia, 5670 nM; in the experiment with SR leukemia, > 100000 nM; in the experiment with T-47D breast, 3780 nM.

Regarding `CCN(CC)CCCC(C)Nc1cc(-c2cccc(OC(F)(F)F)c2)nc2ccc(N3CCCC3)cc12` (configuration not stated), the GI50 in the experiment with SF-268 CNS is 196 nM; in the experiment with UACC-62 melanoma it was 48.4 nM; in the experiment on SN12C renal it was 124 nM; in the experiment on HT29 colon it was 39.4 nM; in the experiment on SNB-19 CNS, 118 nM; in the experiment with LOX IMVI melanoma, 63.8 nM. The GI50 with NCI/ADR-RES ovarian is 45.3 nM; in the experiment on HL-60(TB) leukemia it was 52.8 nM; in the experiment with SR leukemia, 36.5 nM; in the experiment with T-47D breast, 54.2 nM. Besides, the TGI was 19800 nM in the experiment with SF-268 CNS; 20900 nM in the experiment on UACC-62 melanoma; 16100 nM in the experiment on SN12C renal; 11200 nM with HT29 colon; > 100000 nM in the experiment with SNB-19 CNS; 14600 nM with LOX IMVI melanoma. Also, the TGI in the experiment on NCI/ADR-RES ovarian is 6270 nM; in the experiment with HL-60(TB) leukemia, 2060 nM; in the experiment on SR leukemia, > 100000 nM; with T-47D breast, > 100000 nM.

For `CCOC(=O)C(Cc1ccc(N(CCCl)CCCl)cc1)NC(=O)C(Cc1ccccc1)NC=O` (configuration not stated), the TGI is 299 nM in the experiment on SF-268 CNS; 254 nM in the experiment with UACC-62 melanoma; 294 nM with SN12C renal; 289 nM in the experiment on HT29 colon; 624 nM in the experiment with SNB-19 CNS; 301 nM in the experiment with LOX IMVI melanoma. In addition, the TGI with NCI/ADR-RES ovarian is 656 nM; with HL-60(TB) leukemia, 279 nM; in the experiment on SR leukemia, 824 nM; in the experiment with T-47D breast, 241 nM.

On to `O=C(NCCCc1cn[nH]c1)c1ccc(-c2ccncc2)c(C#Cc2ccc(F)cc2)c1`, for which the GI50 was 58800 nM with SF-268 CNS; 16500 nM in the experiment on UACC-62 melanoma; < 10 nM with SN12C renal; < 10 nM in the experiment on HT29 colon; 229 nM in the experiment with SNB-19 CNS; 913 nM with LOX IMVI melanoma. The GI50 was < 11.6 nM with NCI/ADR-RES ovarian, 1850 nM in the experiment on HL-60(TB) leukemia and 2530 nM with SR leukemia. Moreover, the TGI is > 100000 nM with SF-268 CNS; > 70100 nM with UACC-62 melanoma; > 100000 nM in the experiment with SN12C renal; 36700 nM in the experiment on HT29 colon; > 100000 nM with SNB-19 CNS; 53600 nM in the experiment on LOX IMVI melanoma. Also, the TGI in the experiment with NCI/ADR-RES ovarian is > 100000 nM; with HL-60(TB) leukemia it was 14600 nM; in the experiment with SR leukemia, > 100000 nM; with T-47D breast it was 11000 nM.

In the case of `C#Cc1cccc(Nc2nc(Cl)nc3cc(NC(=O)CCl)ccc23)c1`, the GI50 in the experiment with SF-268 CNS was 557 nM; with UACC-62 melanoma, 820 nM; in the experiment on SN12C renal, 637 nM; in the experiment on HT29 colon, 766 nM; in the experiment on SNB-19 CNS, 1680 nM; in the experiment on LOX IMVI melanoma, 410 nM. Besides, the GI50 in the experiment with NCI/ADR-RES ovarian is 1280 nM; in the experiment on HL-60(TB) leukemia, 1420 nM; in the experiment with SR leukemia it was 542 nM; in the experiment on T-47D breast it was 556 nM. Moreover, the TGI in the experiment with SF-268 CNS turned out to be 1480 nM; in the experiment with UACC-62 melanoma it was 3260 nM; in the experiment with SN12C renal, 1800 nM; in the experiment on HT29 colon, 4430 nM; with SNB-19 CNS, 4590 nM; with LOX IMVI melanoma it was 809 nM. For the same compound, the TGI in the experiment on NCI/ADR-RES ovarian was determined as 13600 nM; in the experiment with HL-60(TB) leukemia it was 7270 nM; with SR leukemia it was 1680 nM; in the experiment with T-47D breast, 1650 nM.

As for `C#C[C@@]1(O)[C@@H](CO)O[C@@H](n2cc(I)c3c(N)ncnc32)[C@@H]1O`, the GI50 in the experiment on SF-268 CNS is 1100 nM; with UACC-62 melanoma it was 615 nM; in the experiment with SN12C renal, 97.6 nM; in the experiment with HT29 colon it was 23.7 nM; in the experiment on SNB-19 CNS, 99.6 nM; in the experiment on LOX IMVI melanoma it was 81.2 nM. Further, the GI50 is 73.1 nM in the experiment on NCI/ADR-RES ovarian, 46.2 nM in the experiment with HL-60(TB) leukemia and 262 nM with SR leukemia. The TGI in the experiment on SF-268 CNS was 49900 nM; in the experiment with UACC-62 melanoma it was 2780 nM; in the experiment on SN12C renal, > 100000 nM; in the experiment with HT29 colon, 4750 nM; in the experiment on SNB-19 CNS, > 50000 nM; with LOX IMVI melanoma, 1220 nM. Further, the TGI was 7900 nM with NCI/ADR-RES ovarian, 262 nM with HL-60(TB) leukemia, > 28500 nM with SR leukemia and 127 nM in the experiment on T-47D breast.

As for `CS(=O)(=O)Nc1cccc(-c2ccc3ncnc(Nc4ccc(F)c(Cl)c4)c3c2)c1`, the GI50 was 1970 nM in the experiment with SF-268 CNS; 1840 nM with UACC-62 melanoma; 1930 nM in the experiment on SN12C renal; 1640 nM in the experiment on HT29 colon; 1550 nM in the experiment on SNB-19 CNS; 1460 nM in the experiment on LOX IMVI melanoma. Also, the GI50 was 2030 nM in the experiment with NCI/ADR-RES ovarian, 3530 nM with HL-60(TB) leukemia, 1430 nM in the experiment on SR leukemia and 731 nM in the experiment with T-47D breast. In addition, the TGI with SF-268 CNS came out at 9140 nM; in the experiment on UACC-62 melanoma, 3830 nM; in the experiment with SN12C renal it was 6590 nM; in the experiment on HT29 colon it was 3730 nM; in the experiment with SNB-19 CNS, 4780 nM; in the experiment with LOX IMVI melanoma, 2890 nM. For the same compound, the TGI with NCI/ADR-RES ovarian came to 7540 nM; in the experiment with HL-60(TB) leukemia, 43300 nM; with SR leukemia, 5320 nM; with T-47D breast, 5170 nM.

With `COc1cc(OC)cc(C2C3=C(COC3=O)Nc3cc(OC)ccc32)c1` (configuration not stated), the GI50 in the experiment with SF-268 CNS was < 10.6 nM; with UACC-62 melanoma, < 10 nM; in the experiment with SN12C renal, 14.6 nM; in the experiment with HT29 colon, < 10 nM; in the experiment with SNB-19 CNS it was 17.8 nM; with LOX IMVI melanoma, < 10 nM. The GI50 in the experiment with NCI/ADR-RES ovarian, in the experiment with HL-60(TB) leukemia, in the experiment with SR leukemia and with T-47D breast was < 10 nM in each case. Also, the TGI was > 61800 nM in the experiment with SF-268 CNS; > 81200 nM in the experiment with UACC-62 melanoma; > 77600 nM with SN12C renal; > 36600 nM in the experiment on HT29 colon; > 100000 nM in the experiment with SNB-19 CNS; > 44100 nM with LOX IMVI melanoma. For the same compound, the TGI in the experiment with HL-60(TB) leukemia was < 18.6 nM; with T-47D breast, > 100000 nM.
